From PMC6407917, “Identification of GSK3186899/DDD853651 as a Preclinical Development Candidate for the Treatment of Visceral Leishmaniasis” (Journal of Medicinal Chemistry, 2018)
pIC50: −log10 of the molar value.

Legend:
Test in all cases: biochemical
Parameters in all cases: species or system HEK293/K-562/placenta mixed human extract; Kinobeads chemoproteomic competition binding, quantified by TMT LC-MS/MS, dose response up to 20 uM
CAMK2G = CAMK2G (Homo sapiens, UniProt Q13555)
DCK = DCK (Homo sapiens, UniProt P27707)
MAP4K5 = MAP4K5 (Homo sapiens, UniProt Q9Y4K4)
PDPK1 = PDPK1 (Homo sapiens, UniProt O15530)
CDK10 = CDK10 (Homo sapiens, UniProt Q15131)
MAST3 = MAST3 (Homo sapiens, UniProt O60307)
BMX = BMX (Homo sapiens, UniProt P51813)
HIPK3 = HIPK3 (Homo sapiens, UniProt Q9H422)
CAMKK1 = CAMKK1 (Homo sapiens, UniProt Q8N5S9)
RPS6KA4 = RPS6KA4 (Homo sapiens, UniProt O75676)
LIMK2 = LIMK2 (Homo sapiens, UniProt P53671)
KIT = KIT (Homo sapiens, UniProt P10721)
IKBKE = IKBKE (Homo sapiens, UniProt Q14164)
SIK2 = SIK2 (Homo sapiens, UniProt Q9H0K1)
STRADA = STRADA (Homo sapiens, UniProt Q7RTN6)
RIPK2 = RIPK2 (Homo sapiens, UniProt O43353)
MARK1 = MARK1 (Homo sapiens, UniProt Q9P0L2)
MAP3K6 = MAP3K6 (Homo sapiens, UniProt O95382)
IKBKB = IKBKB (Homo sapiens, UniProt O14920)
ROCK2 = ROCK2 (Homo sapiens, UniProt O75116)
STK3 = STK3 (Homo sapiens, UniProt Q13188)

Measured: pIC50

Chain of IKBKE (Q14164 whole entry): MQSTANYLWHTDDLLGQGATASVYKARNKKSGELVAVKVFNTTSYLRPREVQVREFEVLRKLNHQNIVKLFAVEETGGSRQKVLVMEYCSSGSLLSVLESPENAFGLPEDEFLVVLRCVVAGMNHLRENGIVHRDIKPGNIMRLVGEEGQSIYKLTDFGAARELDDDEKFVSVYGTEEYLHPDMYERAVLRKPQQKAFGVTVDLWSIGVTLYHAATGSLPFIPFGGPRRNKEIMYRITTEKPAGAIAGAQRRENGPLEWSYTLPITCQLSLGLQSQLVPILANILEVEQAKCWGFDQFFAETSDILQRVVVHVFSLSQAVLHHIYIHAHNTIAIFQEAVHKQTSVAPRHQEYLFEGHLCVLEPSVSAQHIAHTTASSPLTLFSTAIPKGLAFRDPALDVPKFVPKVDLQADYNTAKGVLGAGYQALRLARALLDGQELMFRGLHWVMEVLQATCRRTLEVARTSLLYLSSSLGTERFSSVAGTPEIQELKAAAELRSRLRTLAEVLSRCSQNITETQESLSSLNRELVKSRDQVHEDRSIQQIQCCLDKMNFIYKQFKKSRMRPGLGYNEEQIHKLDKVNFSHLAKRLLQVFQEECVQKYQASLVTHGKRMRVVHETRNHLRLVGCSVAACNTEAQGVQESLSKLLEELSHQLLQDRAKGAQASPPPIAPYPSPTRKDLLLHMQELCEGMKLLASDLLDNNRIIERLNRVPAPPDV
Chain of CAMKK1 (Q8N5S9 whole entry): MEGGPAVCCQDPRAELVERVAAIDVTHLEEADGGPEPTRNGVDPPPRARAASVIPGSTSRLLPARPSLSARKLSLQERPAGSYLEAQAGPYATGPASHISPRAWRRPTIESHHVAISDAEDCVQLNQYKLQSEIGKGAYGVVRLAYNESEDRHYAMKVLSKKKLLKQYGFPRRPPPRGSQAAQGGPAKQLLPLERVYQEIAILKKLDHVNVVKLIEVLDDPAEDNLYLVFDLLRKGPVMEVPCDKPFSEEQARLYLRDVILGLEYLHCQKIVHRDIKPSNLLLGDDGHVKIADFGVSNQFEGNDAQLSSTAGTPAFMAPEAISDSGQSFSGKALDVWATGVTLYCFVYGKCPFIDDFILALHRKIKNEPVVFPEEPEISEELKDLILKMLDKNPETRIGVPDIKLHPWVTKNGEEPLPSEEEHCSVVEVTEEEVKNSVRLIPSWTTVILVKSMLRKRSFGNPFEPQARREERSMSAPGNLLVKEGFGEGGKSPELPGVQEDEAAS
Chain of BMX (P51813 whole entry): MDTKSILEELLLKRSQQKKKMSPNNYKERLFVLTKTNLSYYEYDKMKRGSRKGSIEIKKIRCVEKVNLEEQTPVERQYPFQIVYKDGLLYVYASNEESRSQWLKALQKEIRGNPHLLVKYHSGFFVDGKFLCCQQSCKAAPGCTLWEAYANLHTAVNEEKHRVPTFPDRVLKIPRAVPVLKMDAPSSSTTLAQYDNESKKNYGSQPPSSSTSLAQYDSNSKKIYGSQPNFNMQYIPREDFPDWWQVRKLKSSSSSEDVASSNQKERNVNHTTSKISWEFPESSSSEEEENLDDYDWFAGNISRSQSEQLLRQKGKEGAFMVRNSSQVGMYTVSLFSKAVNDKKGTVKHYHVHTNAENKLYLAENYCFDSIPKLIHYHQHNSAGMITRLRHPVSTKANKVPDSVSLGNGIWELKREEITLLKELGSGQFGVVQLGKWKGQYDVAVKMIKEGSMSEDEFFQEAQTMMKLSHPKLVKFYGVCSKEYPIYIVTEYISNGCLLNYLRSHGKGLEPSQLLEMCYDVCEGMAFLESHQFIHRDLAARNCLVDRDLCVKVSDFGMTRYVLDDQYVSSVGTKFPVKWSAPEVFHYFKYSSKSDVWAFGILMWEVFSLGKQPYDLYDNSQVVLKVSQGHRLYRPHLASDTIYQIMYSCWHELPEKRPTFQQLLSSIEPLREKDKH
Chain of STK3 (Q13188 whole entry): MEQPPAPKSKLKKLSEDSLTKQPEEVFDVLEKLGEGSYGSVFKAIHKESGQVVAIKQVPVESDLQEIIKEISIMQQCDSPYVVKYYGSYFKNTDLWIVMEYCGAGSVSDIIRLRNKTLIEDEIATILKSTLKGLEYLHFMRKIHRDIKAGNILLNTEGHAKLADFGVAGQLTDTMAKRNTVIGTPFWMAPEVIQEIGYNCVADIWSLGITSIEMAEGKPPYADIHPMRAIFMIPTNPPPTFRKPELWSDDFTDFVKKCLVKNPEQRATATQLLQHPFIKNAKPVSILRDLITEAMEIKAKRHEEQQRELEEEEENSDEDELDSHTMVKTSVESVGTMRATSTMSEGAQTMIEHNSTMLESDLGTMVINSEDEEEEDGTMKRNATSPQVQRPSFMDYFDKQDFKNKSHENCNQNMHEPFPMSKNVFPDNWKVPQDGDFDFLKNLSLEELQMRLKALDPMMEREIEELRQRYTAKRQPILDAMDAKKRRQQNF
Chain of IKBKB (O14920 whole entry): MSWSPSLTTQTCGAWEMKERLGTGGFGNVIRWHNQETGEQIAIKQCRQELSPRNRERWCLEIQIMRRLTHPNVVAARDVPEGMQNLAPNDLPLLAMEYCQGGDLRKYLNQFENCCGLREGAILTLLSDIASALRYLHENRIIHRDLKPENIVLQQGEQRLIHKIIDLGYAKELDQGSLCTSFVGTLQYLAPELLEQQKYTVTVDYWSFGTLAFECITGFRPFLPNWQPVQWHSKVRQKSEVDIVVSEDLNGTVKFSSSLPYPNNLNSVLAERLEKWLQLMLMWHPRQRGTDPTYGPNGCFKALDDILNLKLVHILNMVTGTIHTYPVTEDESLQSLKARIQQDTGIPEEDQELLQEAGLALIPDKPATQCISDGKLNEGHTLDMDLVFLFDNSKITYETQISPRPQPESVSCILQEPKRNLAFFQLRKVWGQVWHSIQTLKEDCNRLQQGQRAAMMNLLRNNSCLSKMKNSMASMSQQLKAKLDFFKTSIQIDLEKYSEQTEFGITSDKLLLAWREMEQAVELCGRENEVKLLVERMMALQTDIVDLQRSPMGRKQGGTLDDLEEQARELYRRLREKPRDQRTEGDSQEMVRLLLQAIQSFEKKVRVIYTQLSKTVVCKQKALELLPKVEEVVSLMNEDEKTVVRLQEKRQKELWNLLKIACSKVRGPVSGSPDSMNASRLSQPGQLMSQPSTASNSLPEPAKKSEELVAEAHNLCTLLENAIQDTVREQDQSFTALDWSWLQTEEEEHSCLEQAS
Chain of STRADA (Q7RTN6 whole entry): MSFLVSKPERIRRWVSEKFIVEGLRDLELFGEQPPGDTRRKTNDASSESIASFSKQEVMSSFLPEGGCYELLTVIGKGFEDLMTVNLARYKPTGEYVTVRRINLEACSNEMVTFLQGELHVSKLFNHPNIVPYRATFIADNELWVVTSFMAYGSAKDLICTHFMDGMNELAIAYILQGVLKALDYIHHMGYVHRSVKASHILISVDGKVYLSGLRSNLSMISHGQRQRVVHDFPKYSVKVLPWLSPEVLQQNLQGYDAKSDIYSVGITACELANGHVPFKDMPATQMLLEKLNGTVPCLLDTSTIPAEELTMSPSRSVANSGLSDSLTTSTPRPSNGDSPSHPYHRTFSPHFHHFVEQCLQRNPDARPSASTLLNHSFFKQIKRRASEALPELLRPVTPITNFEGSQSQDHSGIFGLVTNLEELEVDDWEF
Chain of RPS6KA4 (O75676 whole entry): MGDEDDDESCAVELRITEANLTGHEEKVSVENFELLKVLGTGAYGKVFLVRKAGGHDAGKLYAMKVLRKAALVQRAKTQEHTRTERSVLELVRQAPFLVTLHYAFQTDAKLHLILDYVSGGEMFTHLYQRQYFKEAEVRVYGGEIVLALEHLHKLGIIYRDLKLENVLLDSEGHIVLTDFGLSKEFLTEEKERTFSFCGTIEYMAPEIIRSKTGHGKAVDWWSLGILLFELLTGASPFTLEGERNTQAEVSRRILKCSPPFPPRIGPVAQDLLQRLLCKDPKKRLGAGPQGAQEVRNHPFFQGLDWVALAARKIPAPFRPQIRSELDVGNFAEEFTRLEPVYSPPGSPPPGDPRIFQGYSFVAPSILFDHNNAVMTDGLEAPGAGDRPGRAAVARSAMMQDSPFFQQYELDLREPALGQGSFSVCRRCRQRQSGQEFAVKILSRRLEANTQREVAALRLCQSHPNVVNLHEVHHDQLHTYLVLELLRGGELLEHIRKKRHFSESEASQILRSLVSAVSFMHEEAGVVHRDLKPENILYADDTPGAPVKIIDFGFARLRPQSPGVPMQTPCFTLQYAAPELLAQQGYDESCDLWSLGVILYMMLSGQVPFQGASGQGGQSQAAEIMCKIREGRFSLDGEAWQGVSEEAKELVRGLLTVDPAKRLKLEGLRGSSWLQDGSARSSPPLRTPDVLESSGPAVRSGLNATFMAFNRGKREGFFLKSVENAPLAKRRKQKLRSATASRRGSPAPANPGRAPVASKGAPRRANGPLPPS
Chain of LIMK2 (P53671 whole entry): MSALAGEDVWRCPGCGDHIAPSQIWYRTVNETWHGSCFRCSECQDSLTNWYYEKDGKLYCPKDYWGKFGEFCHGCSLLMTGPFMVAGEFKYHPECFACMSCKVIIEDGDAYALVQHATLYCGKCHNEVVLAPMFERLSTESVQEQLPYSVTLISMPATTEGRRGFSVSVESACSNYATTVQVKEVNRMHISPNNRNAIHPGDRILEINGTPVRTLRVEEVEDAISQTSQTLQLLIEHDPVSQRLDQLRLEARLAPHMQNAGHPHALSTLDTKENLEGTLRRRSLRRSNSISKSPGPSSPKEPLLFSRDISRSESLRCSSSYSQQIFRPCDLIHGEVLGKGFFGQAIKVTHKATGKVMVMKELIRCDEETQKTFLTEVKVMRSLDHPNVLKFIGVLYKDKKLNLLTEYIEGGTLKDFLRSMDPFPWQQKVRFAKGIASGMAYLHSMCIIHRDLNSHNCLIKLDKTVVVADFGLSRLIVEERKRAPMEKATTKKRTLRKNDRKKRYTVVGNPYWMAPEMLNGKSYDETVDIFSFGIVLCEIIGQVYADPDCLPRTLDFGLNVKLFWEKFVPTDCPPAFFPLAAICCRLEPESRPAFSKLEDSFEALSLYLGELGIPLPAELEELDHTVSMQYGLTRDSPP

COc1nc(N[C@H]2CC[C@H](NS(=O)(=O)CC(C)C)CC2)nc2[nH]nc(N3CCOC[C@H]3C)c12 [compound 39, N-(trans-4-((4-Methoxy-3-((R)-3-methylmorpholino)-1H-pyrazolo[3,4-d]pyrimidin-6-yl)amino)cyclohexyl)-2-methylpropane-1-sulfonamide]
≤ 4.70: all assays above
